Measurements as given in article PMC4845953 (Journal of materials chemistry. B, Materials for biology …, 2016).
Non-standard residues stand in square brackets, D forms with d. Residues, ends and D or L forms follow the SMILES beside them. *: point of attachment. d(pY) = N[C@H](Cc1ccc(OP(=O)(O)O)cc1)C(=O)O; Acetyl(2-naphthyl) = O=C(Cc1ccc2ccccc2c1)*; pY = N[C@@H](Cc1ccc(OP(=O)(O)O)cc1)C(=O)O

Key:
[1] = biological target: proteinase K (Parengyodontium album, UniProt P06873)
[2] = system: HeLa cells; conditions: 48 h
[3] = type: physicochemical; conditions: pH 7.4
[4] = type: physicochemical; conditions: pH 7.4; remark: listed apart in the source
[5] = type: physicochemical; conditions: pH 7.4; remark: listed apart in the source

Chain of proteinase K (P06873 106-384): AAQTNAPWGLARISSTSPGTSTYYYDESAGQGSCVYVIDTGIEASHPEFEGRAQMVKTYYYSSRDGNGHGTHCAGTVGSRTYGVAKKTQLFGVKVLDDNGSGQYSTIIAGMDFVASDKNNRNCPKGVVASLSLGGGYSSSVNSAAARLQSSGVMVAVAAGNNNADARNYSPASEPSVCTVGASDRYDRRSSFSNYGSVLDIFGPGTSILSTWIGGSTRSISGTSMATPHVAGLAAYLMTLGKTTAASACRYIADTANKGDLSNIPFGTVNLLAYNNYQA

| Compound | proteolytic stability towards proteinase K [1] | IC50 [2] [µM] | ALP gel: dynamic strain sweep, Max. G′ [3] [Pa] | ALP gel: dynamic strain sweep, critical strains [3] [%] | ALP gel: TEM fiber width [4] | time to hydrogel after addition of ALP [5] [min] |
| --- | --- | --- | --- | --- | --- | --- |
| NC(=O)CC[C@@H](NC(=O)[C@@H](CCC(N)=O)NC(=O)[C@@H](CC(N)=O)NC(=O)[C@@H](CC(N)=O)NC(=O)CNC(=O)[C@@H](Cc1ccccc1)NC(=O)[C@@H](Cc1ccccc1)NC(=O)Cc1ccc2ccccc2c1)C(=O)N[C@H](CC(N)=O)C(=O)N[C@H](Cc1ccc(OP(=O)(O)O)cc1)C(=O)O [Precursor D-3P, N’ffgnnqqnyp] ({Acetyl(2-naphthyl)}-[dF][dF]G[dN][dN][dQ][dQ][dN][d(pY)]-OH) | high resistance | > 500 |  |  |  |  |
| NC(=O)CC[C@@H](NC(=O)[C@@H](CCC(N)=O)NC(=O)[C@@H](CC(N)=O)NC(=O)[C@@H](CC(N)=O)NC(=O)CNC(=O)[C@@H](Cc1ccccc1)NC(=O)[C@@H](Cc1ccccc1)NC(=O)Cc1ccc2ccccc2c1)C(=O)N[C@H](CC(N)=O)C(=O)N[C@H](Cc1ccc(O)cc1)C(=O)O [Precursor D-3] ({Acetyl(2-naphthyl)}-[dF][dF]G[dN][dN][dQ][dQ][dN][dY]-OH) |  |  | 132 | 7.0 |  |  |
| NC(=O)CC[C@H](NC(=O)[C@H](CCC(N)=O)NC(=O)[C@H](CC(N)=O)NC(=O)[C@H](CC(N)=O)NC(=O)CNC(=O)[C@H](Cc1ccccc1)NC(=O)[C@H](Cc1ccccc1)NC(=O)Cc1ccc2ccccc2c1)C(=O)N[C@@H](CC(N)=O)C(=O)N[C@@H](Cc1ccc(OP(=O)(O)O)cc1)C(=O)O [Precursor L-3P, N’FFGNNQQNYp] ({Acetyl(2-naphthyl)}-FFGNNQQN[pY]-OH) | almost completely degrade | 476 ± 21.4 | 32.8 | 13.2 | 8 ± 2 nm | 10 |
| NC(=O)CC[C@H](NC(=O)[C@H](CCC(N)=O)NC(=O)[C@H](CC(N)=O)NC(=O)[C@H](CC(N)=O)NC(=O)CNC(=O)[C@H](Cc1ccccc1)NC(=O)[C@H](Cc1ccccc1)NC(=O)Cc1ccc2ccccc2c1)C(=O)N[C@@H](CC(N)=O)C(=O)N[C@@H](Cc1ccc(O)cc1)C(=O)O [Precursor L-3] ({Acetyl(2-naphthyl)}-FFGNNQQNY-OH) |  |  | 33 | 13.2 | about 8 ± 2 nm |  |
